{"source": "paper PMC6362118", "about": "“Pharmacophore-guided discovery of CDC25 inhibitors causing cell cycle arrest and tumor regression” (Scientific Reports, 2019)", "key": {"HeLa cells [1]": {"tested_on": "HeLa cells", "assay": "Cell viability assay on HeLa cells", "assay_type": "cell-based", "settings": "48h treatment", "experimental": "(§1) 75 Cell culture - Wild-type HeLa and Kyoto HeLa cells stably expressing mCherry-H2B\n(§2) 76 were maintained in DMEM+L-Glutamine (Gibco, Life Technologies, USA)\n(§3) 77 supplemented with 5% fetal calf serum (FCS) (Gibco) and penicillin-streptomycin (100\n78 U/ml - 100 µg/ml) (Gibco). […]\n87 Cell viability assays - Compounds viability upon 48h treatment with the compounds was\n88 assessed as described 4. Data were plotted with Prism 7® and analyzed by non-linear\n89 regression. Comparison of single curve fitting to all data set within an experiment was\n90 performed with the extra sum-of-squares F-test to determine P values. […]"}, "[2]": {"parameters": "method as in PMID 17970046", "settings": "due to rapid metabolism; cited from earlier work"}, "CDC25A": {"target": "T1, CDC25A (Homo sapiens, UniProt P30304)", "T1 construct": "GST (pGEX vector) (N); made in house; host or cells: E. coli BL21", "T1 sequence (P30304 1-524)": "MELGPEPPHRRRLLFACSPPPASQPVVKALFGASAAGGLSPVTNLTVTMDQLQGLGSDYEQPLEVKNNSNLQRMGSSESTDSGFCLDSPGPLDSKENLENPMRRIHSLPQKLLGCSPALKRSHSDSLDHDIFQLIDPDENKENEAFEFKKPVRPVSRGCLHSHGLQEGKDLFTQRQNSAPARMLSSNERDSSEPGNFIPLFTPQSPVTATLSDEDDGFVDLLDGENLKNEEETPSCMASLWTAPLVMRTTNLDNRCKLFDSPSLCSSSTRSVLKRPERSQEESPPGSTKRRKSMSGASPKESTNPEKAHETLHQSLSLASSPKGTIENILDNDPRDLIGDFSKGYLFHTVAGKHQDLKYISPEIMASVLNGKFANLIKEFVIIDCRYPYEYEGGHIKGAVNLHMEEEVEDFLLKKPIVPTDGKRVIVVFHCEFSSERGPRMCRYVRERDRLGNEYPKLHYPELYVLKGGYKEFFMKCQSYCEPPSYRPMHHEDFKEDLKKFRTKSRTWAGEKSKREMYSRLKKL", "assay": "Enzymatic assay (OMFP substrate) on recombinant CDC25A", "assay_type": "biochemical", "experimental": "57 UPD compounds were dissolved in DMSO at 10 mM stock concentration and stored in\n60 Expression and purification of CDC25 phosphatases - CDC25A (kind gift of I.\n61 Hoffmann, Heidelberg, Germany), CDC25B and CDC25C (kind gift of B. Gabrielli,\n62 Queensland, Australia) in pGEX were expressed in E. coli BL21 cells and purified on 1\n63 ml Glutathione Sepharose 4 Fast Flow columns as described 1.\n(§4) 65 Enzymatic assays - CDC25A, CDC25B and CDC25C were appropriately diluted in 10\n(§5) 66 mM Tris-HCl pH 8.0, 50 mM NaCl and assayed in 20 mM Tris-HCl pH 8.0, 75 mM\n(§6) 67 NaCl, 0.5 mM EGTA, 1 mM DTT, 0.1 mg/ml BSA and defined concentrations of\n(§7) 68 compounds. Reactions were started by addition of the substrate OMFP (0.1 mM). Assays\n(§8) 69 were carried out at room temperature in duplicate or triplicate using transparent-bottom,\n(§9) 70 V-shaped 96 well plates and read at defined intervals on a Molecular Devices\n(§10) 71 SpectraMax microplate reader (ex: 490 nm / em: 525 nm). IC50 and kinetic parameters\n(§11) 72 calculated from Lineweaver-Burk double-reciprocal plots of the data were obtained using\n73 GraphPad Prism software. […]"}, "[3]": {"tested_on": "U2OS Tet-OFF cells expressing HA-CDC25A", "assay": "Cell viability of U2OS Tet-OFF cells overexpressing HA-CDC25A", "assay_type": "cell-based", "settings": "grown in the absence of tetracycline (HA-CDC25A induced)", "experimental": "as §4, §5, §6, §7, §8, §9, §10, §11\n73 GraphPad Prism software.\nas §1, §2, §3\n78 U/ml - 100 µg/ml) (Gibco). A549 and Colo741 were grown and maintained like HeLa\n79 cells but with 10% FCS. HCT116 were maintained in McCoy’s medium supplemented\n80 with 10% FCS and penicillin-streptomycin. U2OS-Tet-OFF cells expressing HA-CDC25\n81 were grown and maintained in DMEM+L-Glutamine, 10% Tet-free FCS and penicillin- […]\n88 assessed as described 4. Data were plotted with Prism 7® and analyzed by non-linear […]"}, "HeLa cells [4]": {"tested_on": "HeLa cells", "assay": "Flow cytometric analysis of cell cycle progression (DNA content) in HeLa cells", "assay_type": "cell-based", "experimental": "Reactions were started by addition of the substrate OMFP (0.1 mM). Assays 69 were carried out at room temperature in duplicate or triplicate using transparent-bottom, 70 V-shaped 96 well plates and read at defined intervals on a Molecular Devices 71 SpectraMax microplate reader (ex: 490 nm / em: 525 nm). IC50 and kinetic parameters 72 calculated from Lineweaver-Burk double-reciprocal plots of the data were obtained using 73 GraphPad Prism software. 74 75 Cell culture - Wild-type HeLa and Kyoto HeLa cells stably expressing mCherry-H2B 76 were maintained in DMEM+L-Glutamine (Gibco, Life Technologies, USA) 77 supplemented with 5% fetal calf serum (FCS) (Gibco) and penicillin-streptomycin (100 […] A549 and Colo741 were grown and maintained like HeLa 79 cells but with 10% FCS. HCT116 were maintained in McCoy's medium supplemented 80 with 10% FCS and penicillin-streptomycin. U2OS-Tet-OFF cells expressing HA-CDC25 81 were grown and maintained in DMEM+L-Glutamine, 10% Tet-free FCS and penicillin- 82 streptomycin in the presence or the absence of 4 μg/ml tetracycline (Sigma, T7660). 83 84 Cell synchronization - Cell synchronization was performed by double thymidine block- 85 release protocol 2 or nocodazole treatment 3 and verified by flow cytometry. 86 87 Cell viability assays - Compounds viability upon 48h treatment with the compounds was 88 assessed as described 4. Data were plotted with Prism 7® and analyzed by non-linear 89 regression. Comparison of single curve fitting to all data set within an experiment was 90 performed with the extra sum-of-squares F-test to determine P values. 91 92 Western blotting - Cell lysis and immunoblot analysis were performed as previously 93 described 5. […] Cells were washed with PBS, resuspended […] To 100 quantify phosphorylation of CDK1 at Tyr15 and H2AX at S139, cells were harvested and 101 examined as described 6. Samples were measured on an AttuneTM NxT Cytometer 102 (ThermoFisher Scientific, Carlsbad, CA, USA) and data were analyzed with FlowJo® 103 software v10 (FlowJo, LLC, Ashland, OR, USA). 104 105 Real Time qRT-PCR - Organoids were lysed in Tri-Reagent (Sigma) as previously 106 described 7 and total RNA was isolated as described by manufacturer's instructions. For […] 108 High Fidelity cDNA Synthesis kit (Roche). Real-time quantitative PCR reactions were 109 performed in three independent biological replicates, each with technical triplicate, using 110 the Applied Biosystems SYBR Green Kit and monitored by the ABI Prism 7900HT 111 system (Applied Biosystem). The following primers were used: 112 Lgr5: Forward [NT] and Reverse 5'- […] 114 Lysozyme: Forward [NT] and Reverse 5'- 115 [NT]3' 116 Cryptdin: Forward [NT] and Reverse 5'- 117 [NT]-binding protein (TBP): Forward [NT] and 119 Reverse [NT] 120 […] 122 amplification curves and the melting temperature analysis of the final amplification […] 4"}, "HeLa cells [5]": {"tested_on": "HeLa cells", "assay": "Time-lapse microscopy of mitosis in synchronized HeLa cells", "assay_type": "cell-based", "experimental": "Cells were grown in 35 mm CellView™ cell culture dishes with glass bottom (# 627870, Greiner-BioOne) at a density of 2.5 × 10^5 cells/ml in a humidified cell incubator maintained at 37 °C and 5% CO2. Cell were viewed by phase contrast microscopy with a 10x objective using an Olympus IX 81 motorized inverted microscope (Olympus, Hamburg, Germany) equipped with external temperature control chamber and CO2 bottle to maintain cells at 37 °C with 5% CO2. Transition through mitosis was documented by acquisition of four frames per hour over a period of 14 h using a CCD camera (Orca AG, Hamamatsu) and cellR® software (Olympus). HeLa-Kyoto cells (mCherry-H2B/EGFP-α-tubulin) were visualized by fluorescence microscopy with an Olympus IX 81 microscope using a 10x objective and selecting Ex. = 492 ± 18 nm/Em. = 535 ± 50 nm for the green channel and Ex. = 572 ± 23 nm/Em. = 645 ± 75 nm for the red channel."}}, "data": [{"smiles": "O=C1C(Cl)=C(NCCN2CCOCC2)C(=O)c2ncccc21", "note": "[NSC-663284, reference compound]", "values": [{"measurement": "IC50", "setting": "HeLa cells [1]", "result": 2570, "unit": "nM"}, {"measurement": "antitumor activity in mice", "setting": "[2]", "result": "minimal antitumor activity"}, {"measurement": "mode of action (reversibility)", "setting": "CDC25A; pre-incubation at ~3x IC50 (5 μM UPDs, 2 µM NSC663284), 10-fold dilution", "result": "irreversible"}]}, {"smiles": "Cc1c(O)ccc(C2=CC(=O)c3cccc(O)c3C2=O)c1O", "note": "[UPD-787, 8-hydroxy-2-(2,4-dihydroxy-3-methylphenyl) naphthalene-1,4-dione]", "values": [{"measurement": "IC50", "setting": "HeLa cells [1]; Homo sapiens", "result": 900, "unit": "nM"}, {"measurement": "sensitivity of CDC25A overexpressing cells (viability)", "setting": "[3]", "result": "remained sensitive"}, {"measurement": "effect on cell cycle distribution (DNA content)", "setting": "HeLa cells [4]; asynchronous HeLa cells, 10 μM, 15 h", "result": "accumulation of cells at G2/M"}, {"measurement": "effect on the G2/M transition", "setting": "HeLa cells [4]; double-thymidine synchronized HeLa, 10 μM added 5 h upon release, analysed 12 h post-release", "result": "accretion of the G2/M peak"}, {"measurement": "execution of mitosis (time-lapse)", "setting": "HeLa cells [5]; HeLa, 10 μM added 5 h upon release from 2x thymidine block, monitored 14 h", "result": "could not complete mitotic transition and died before reaching G1"}, {"measurement": "execution of mitosis at low dose (time-lapse)", "setting": "HeLa cells [5]; synchronized HeLa Kyoto cells (mCherry-H2B, GFP-α-tubulin), 5 μM", "result": "failed attempt to round up and execute mitosis, which was followed by membrane blebbing and death"}, {"measurement": "remaining activity at 20 µM", "setting": "CDC25A; compound 20 µM, relative to DMSO control, read-out: % remaining activity ± SD (Table S2, second round of selection)", "result": "0.1 ± 0.3", "unit": "%"}]}]}
